Results on ten compounds are retold here after patent US6664273B2, “Piperidine based MCH antagonists for treatment of obesity and CNS disorders” (Schering Corporation, priority 2001, dated 2003).

T1 sequence (Q99705 whole entry): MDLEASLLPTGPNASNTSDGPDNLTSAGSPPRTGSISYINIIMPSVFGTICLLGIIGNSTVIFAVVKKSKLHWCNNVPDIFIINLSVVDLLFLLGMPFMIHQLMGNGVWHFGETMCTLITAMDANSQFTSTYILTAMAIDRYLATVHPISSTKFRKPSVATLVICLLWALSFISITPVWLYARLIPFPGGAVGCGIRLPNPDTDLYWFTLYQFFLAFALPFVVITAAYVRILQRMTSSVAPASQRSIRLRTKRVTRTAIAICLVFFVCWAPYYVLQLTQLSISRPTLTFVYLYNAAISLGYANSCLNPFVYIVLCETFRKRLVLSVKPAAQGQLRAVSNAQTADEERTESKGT

The assay concerns the target T1, MCH receptor (Homo sapiens, UniProt Q99705).
T1 construct: expressed in transfected cells; host or cells: CHO cells
The assay can be described thus: MCH Receptor Binding Assay. The following applies: [125I]-MCH, SPA, membranes from CHO cells expressing the MCH receptor. The procedure:
Membranes from CHO cells expressing the MCH receptor were prepared by lysing cells with 5 mM HEPES for 15 min at 4C. Cell lysates were centrifuged ([…], 15 min) and the pellet was re-suspended in 5 mM HEPES. For each 96-well plate (Microlite, Dynex Technologies), 1 mg of cell membranes were incubated with 10 mg of wheat germ agglutinin SPA beads (Amersham) for 5 min at 4 C in a volume of 10 ml of binding buffer (25 mM HEPES, 10 mM MGCl2, 10 mM NaCl, 5 mM MnCl2, 0.1% BSA). The membrane/bead mixture was centrifuged (1500×g, 3.5 min), the supernatant was aspirated, and the pellet was re-suspended in 10 ml binding buffer. The centrifugation, aspiration and re-suspension were then repeated. The membrane/bead mixture (100 μl) was then added to 96-well plates containing 50 μl of 500 pM [^125I]-MCH (NEN) and […] of the appropriate concentration of compound (4× the desired final concentration). Nonspecific binding was determined by including 1 μM MCH in the binding reaction. The binding reaction was incubated at room temperature for 2 h. Plates were then analyzed in a TOPCOUNT microplate scintillation counter (Packard). Data was analyzed and Ki values were determined using GraphPad Prism.
In turn, `N#Cc1cccc(-c2ccc(C3(NCC(=O)Nc4cc(Cl)cc(Cl)c4)CCN(C4CCCC4)CC3)cc2)c1` displayed a Ki of 3.2 nM. In other words, the single-digit nanomolar range.

In turn, `CN(CC(=O)Nc1cc(Cl)cc(Cl)c1)C1(c2ccc(-c3cccc(C#N)c3)cc2)CCN(C2CCCC2)CC1` yielded a Ki of 8.6 nM.

Take `N#Cc1cccc(-c2ccc(C3(NCC(=O)Nc4ccc(F)c(Cl)c4)CCNCC3)cc2)c1`: the Ki is 3 nM. Against the preceding compound, the Ki is about 2.9-fold lower.

As for `CN(CC(=O)Nc1ccc(F)c(Cl)c1)C1(c2ccc(-c3cccc(C#N)c3)cc2)CCNCC1`, the inhibition constant (Ki) came out at 4.7 nM.

As for `CC(=O)N1CCC(c2ccc(-c3cccc(C#N)c3)cc2)(N(C)CC(=O)Nc2ccc(F)c(Cl)c2)CC1`, the inhibitory constant (Ki) was 25 nM.

In turn, `CN(CC(=O)Nc1ccc(F)c(Cl)c1)C1(c2ccc(-c3cccc(C#N)c3)cc2)CCN(S(C)(=O)=O)CC1` displayed a Ki of 70 nM.

As to `O=C(CNC1(c2ccc(-c3cccc(F)c3)cc2)CCN(C2CCCC2)CC1)Nc1ccc(F)c(Cl)c1`, the affinity corresponds to a Ki of 99 nM.

`O=C(CNC1(c2ccc(-c3cccc(Cl)c3)cc2)CCN(C2CCCC2)CC1)Nc1ccc(F)c(Cl)c1` registered a Ki of 63 nM.

For `COc1cccc(-c2ccc(C3(NCC(=O)Nc4ccc(F)c(Cl)c4)CCN(C4CCCC4)CC3)cc2)c1`, the inhibitory constant (Ki) is 77 nM.

Compound `CS(=O)(=O)c1ccc(CN2CCC(OCC(=O)Nc3cc(Cl)cc(Cl)c3)(c3ccc(-c4cccc(C#N)c4)cc3)CC2)cc1` gave a Ki of 76 nM. The Ki values of the last two compounds are within 1.5-fold of each other.

Broadly, the Ki is a dissociation constant, usually derived from enzyme kinetics or from competition with a known ligand.
